# In patent publication US11613522B2, “Herbicidally active 3-phenylisoxazoline-5-carboxamides of tetrahydro- and dihydrofurancarboxamides” (BAYER AKTIENGESELLSCHAFT, priority 2017, dated 2023):
# Tests used:
# Assay type in all cases: in vivo
# Amaranthus retroflexus [1] = test: Post-emergence herbicidal activity against AMARE; settings: dosage 320 g/ha, rated visually after about 3 weeks; for pest or weed control at 320 g/ha: Amaranthus retroflexus, 504 h
# Description: (§1) [table] Seeds of monocotyledonous and dicotyledonous weeds and crop plants are placed in sandy loam in plastic or wood-fiber pots, covered with soil and cultivated in a greenhouse under controlled growth conditions. 2 to 3 weeks after sowing, the test plants are treated at the one-leaf stage. The compounds of the invention, formulated in the form of wettable powders (WP) or as emulsion concentrates (EC), are then sprayed onto the green parts of the plants as aqueous suspension or emulsion with addition of 0.5% additive at a water application rate of 600 l/ha (converted). After the test plants had been kept in the greenhouse under optimum growth conditions for about 3 weeks, the activity of the preparations is rated visually in comparison to untreated controls. For example, 100% activity=the plants have died, 0% activity=like control plants.
# Setaria viridis [2] = test: Post-emergence herbicidal activity against SETVI; settings: dosage 320 g/ha, rated visually after about 3 weeks; for pest or weed control at 320 g/ha: Setaria viridis, 504 h
# Description: as §1
# Lolium rigidum [3] = test: Post-emergence herbicidal activity against LOLRI; settings: dosage 320 g/ha, rated visually after about 3 weeks
# Description: as §1
# Avena fatua [4] = test: Post-emergence herbicidal activity against AVEFA; settings: dosage 320 g/ha, rated visually after about 3 weeks; for pest or weed control at 320 g/ha: Avena fatua, 504 h
# Description: as §1
# Pharbitis purpurea = test: Post-emergence herbicidal activity against PHBPU; settings: dosage 320 g/ha, rated visually after about 3 weeks; for pest or weed control at 320 g/ha: Ipomoea purpurea, 504 h
# Description: as §1
# Stellaria media [5] = test: Post-emergence herbicidal activity against STEME; settings: dosage 320 g/ha, rated visually after about 3 weeks; for pest or weed control at 320 g/ha: Stellaria media, 504 h
# Description: as §1
# Echinochloa crus-galli = test: Post-emergence herbicidal activity against ECHCG; settings: dosage 320 g/ha, rated visually after about 3 weeks; for pest or weed control at 320 g/ha: Echinochloa crus-galli, 504 h
# Description: as §1
# Alopecurus myosuroides [6] = test: Post-emergence herbicidal activity against ALOMY; settings: dosage 320 g/ha, rated visually after about 3 weeks; for pest or weed control at 320 g/ha: Alopecurus myosuroides, 504 h
# Description: as §1
# Viola tricolor [7] = test: Post-emergence herbicidal activity against VIOTR; settings: dosage 320 g/ha, rated visually after about 3 weeks; for pest or weed control at 320 g/ha: Viola tricolor, 504 h
# Description: as §1
# Abutilon theophrasti = test: Post-emergence herbicidal activity against ABUTH; settings: dosage 320 g/ha, rated visually after about 3 weeks
# Description: as §1
# Hordeum murinum [8] = test: Post-emergence herbicidal activity against HORMU; settings: dosage 320 g/ha, rated visually after about 3 weeks
# Description: as §1
# Veronica persica [9] = test: Post-emergence herbicidal activity against VERPE; settings: dosage 320 g/ha, rated visually after about 3 weeks; for pest or weed control at 320 g/ha: Veronica persica, 504 h
# Description: as §1
# Polygonum convolvulus [10] = test: Post-emergence herbicidal activity against POLCO; settings: dosage 320 g/ha, rated visually after about 3 weeks; for pest or weed control at 320 g/ha: Fallopia convolvulus, 504 h
# Description: as §1
# Veronica persica [11] = test: Pre-emergence herbicidal activity against VERPE; settings: dosage 80 g/ha
# From the text: (§2) 1. Pre-emergence herbicidal action against harmful plants and crop plant compatibility Seeds of monocotyledonous and dicotyledonous weed plants and crop plants are placed in plastic or wood fiber pots and covered with soil. The compounds of the invention, formulated in the form of wettable powders (WP) or as emulsion concentrates (EC), are then applied onto the surface of the covering soil as aqueous suspension or emulsion with addition of 0.5% additive at a water application rate of 600 l/ha (converted). After the treatment, the pots are placed in a greenhouse and kept under good growth conditions for the trial plants. After about 3 weeks, the effect of the preparations is scored visually in comparison with untreated controls as percentages. For example, 100% activity=the plants have died, 0% activity=like control plants. [table]
# Alopecurus myosuroides [12] = test: Pre-emergence herbicidal activity against ALOMY; settings: dosage 80 g/ha, scored visually after about 3 weeks vs untreated controls; for pest or weed control at 80 g/ha: Alopecurus myosuroides, 504 h
# From the text: as §2
# Polygonum convolvulus [13] = test: Pre-emergence herbicidal activity against POLCO; settings: dosage 80 g/ha, scored visually after about 3 weeks vs untreated controls; for pest or weed control at 80 g/ha: Fallopia convolvulus, 504 h
# From the text: as §2
# Stellaria media [14] = test: Pre-emergence herbicidal activity against STEME; settings: dosage 80 g/ha, scored visually after about 3 weeks vs untreated controls
# From the text: as §2
# Lolium rigidum [15] = test: Pre-emergence herbicidal activity against LOLRI; settings: dosage 80 g/ha, scored visually after about 3 weeks vs untreated controls
# From the text: as §2
# Avena fatua [16] = test: Pre-emergence herbicidal activity against AVEFA; settings: dosage 80 g/ha, scored visually after about 3 weeks vs untreated controls
# From the text: as §2
# Viola tricolor [17] = test: Pre-emergence herbicidal activity against VIOTR; settings: dosage 80 g/ha, scored visually after about 3 weeks vs untreated controls
# From the text: as §2
# Amaranthus retroflexus [18] = test: Pre-emergence herbicidal activity against AMARE; settings: dosage 80 g/ha, scored visually after about 3 weeks vs untreated controls
# From the text: as §2
# Hordeum murinum [19] = test: Pre-emergence herbicidal activity against HORMU; settings: dosage 80 g/ha
# From the text: as §2
# Setaria viridis [20] = test: Pre-emergence herbicidal activity against SETVI; settings: dosage 80 g/ha, scored visually after about 3 weeks vs untreated controls
# From the text: as §2
SMILES,Post-emergence herbicidal activity in % against AMARE (Amaranthus retroflexus [1]),Post-emergence herbicidal activity in % against SETVI (Setaria viridis [2]),Post-emergence herbicidal activity in % against LOLRI (Lolium rigidum [3]),Post-emergence herbicidal activity in % against AVEFA (Avena fatua [4]),Post-emergence herbicidal activity in % against PHBPU (Pharbitis purpurea),Post-emergence herbicidal activity in % against STEME (Stellaria media [5]),Post-emergence herbicidal activity in % against ECHCG (Echinochloa crus-galli),Post-emergence herbicidal activity in % against ALOMY (Alopecurus myosuroides [6]),Post-emergence herbicidal activity in % against VIOTR (Viola tricolor [7]),Post-emergence herbicidal activity in % against ABUTH (Abutilon theophrasti),Post-emergence herbicidal activity in % against HORMU (Hordeum murinum [8]),Post-emergence herbicidal activity in % against VERPE (Veronica persica [9]),Post-emergence herbicidal activity in % against POLCO (Polygonum convolvulus [10]),pest or weed control at 320 g/ha (Avena fatua [4]),pest or weed control at 320 g/ha (Pharbitis purpurea),pest or weed control at 320 g/ha (Alopecurus myosuroides [6]),pest or weed control at 320 g/ha (Veronica persica [9]),pest or weed control at 320 g/ha (Polygonum convolvulus [10]),pest or weed control at 320 g/ha (Setaria viridis [2]),pest or weed control at 320 g/ha (Stellaria media [5]),other results
C=C[C@]1(C(=O)N[C@@H]2CO[C@H](C(=O)NS(=O)(=O)CCC)C2)CC(c2cc(F)cc(F)c2)=NO1 [Example I-29],90%,90%,90%,90%,90%,90%,90%,90%,90%,90%,90%,90%,90%,,,,,,,,
"CC1(C(=O)NC2COCC2C(=O)NC2CC2)CC(c2cc(F)cc(F)c2)=NO1 (centres unmarked) [Example I-08, N-[4-(cyclopropylcarbamoyl)tetrahydrofuran-3-yl]-3-(3,5-difluorophenyl)-5-methyl-4H-isoxazole-5-carboxamide]",,,,,,,,,,,,,,80%,80%,90%,80%,80%,,,"pest or weed control at 80 g/ha (Veronica persica [11]; Veronica persica, 504 h): 90%; pest or weed control at 80 g/ha (Alopecurus myosuroides [12]): 90%"
"CC1(C(=O)N[C@@H]2CO[C@H](C(=O)NC3CC3)C2)CC(c2cc(F)cc(F)c2)=NO1 (relative stereo) [Example I-04, N-[cis-5-(cyclopropylcarbamoyl)tetrahydrofuran-3-yl]-3-(3,5-difluorophenyl)-5-methyl-4H-isoxazole-5-carboxamide]",,,,,,,,,,,,,,100%,80%,90%,80%,80%,90%,80%,pest or weed control at 80 g/ha (Polygonum convolvulus [13]): 90%; pest or weed control at 320 g/ha (Echinochloa crus-galli): 80%; pest or weed control at 320 g/ha (Viola tricolor [7]): 80%; pest or weed control at 80 g/ha (Alopecurus myosuroides [12]): 80%
CCCS(=O)(=O)NC(=O)[C@@H]1C[C@H](NC(=O)[C@@]2(C)CC(c3cc(F)cc(F)c3)=NO2)CO1 [Example I-28],80%,90%,100%,100%,90%,90%,90%,90%,90%,80%,90%,90%,80%,,,,,,,,
"CC1(C(=O)N[C@@H]2CO[C@H](C(=O)N3CCCC3)C2)CC(c2cc(F)cc(F)c2)=NO1 (relative stereo) [Example I-03, 3-(3,5-difluorophenyl)-5-methyl-N-[cis-5-(pyrrolidine-1-carbonyl)tetrahydrofuran-3-yl]-4H-isoxazole-5-carboxamide]",,,,,,,,,,,,,,90%,80%,80%,90%,80%,90%,90%,"pest or weed control at 320 g/ha (Amaranthus retroflexus [1]): 80%; pest or weed control at 80 g/ha (Polygonum convolvulus [13]): 80%; pest or weed control at 320 g/ha (Echinochloa crus-galli): 80%; pest or weed control at 80 g/ha (Stellaria media [14]; Stellaria media, 504 h): 80%; pest or weed control at 320 g/ha (Viola tricolor [7]): 80%"
C=CC1(C(=O)NC2COC(C(=O)NC(C)CC(=O)OCC)C2)CC(c2cc(F)cc(F)c2)=NO1 (centres unmarked) [Example I-22],90%,90%,100%,100%,90%,80%,100%,100%,80%,80%,100%,80%,80%,,,,,,,,Pre-emergence herbicidal activity in % against VERPE (Veronica persica [11]): 100%; Pre-emergence herbicidal activity in % against POLCO (Polygonum convolvulus [13]): 100%; Pre-emergence herbicidal activity in % against LOLRI (Lolium rigidum [15]): 100%; Pre-emergence herbicidal activity in % against AVEVA (AVEFA) (Avena fatua [16]): 100%; Pre-emergence herbicidal activity in % against VIOTR (Viola tricolor [17]): 100%; Pre-emergence herbicidal activity in % against AMARE (Amaranthus retroflexus [18]): 100%; Pre-emergence herbicidal activity in % against HORMU (Hordeum murinum [19]): 100%; Pre-emergence herbicidal activity in % against STEME (Stellaria media [14]): 90%; Pre-emergence herbicidal activity in % against SETVI (Setaria viridis [20]): 100%; Pre-emergence herbicidal activity in % against ALOMY (Alopecurus myosuroides [12]): 100%
"C=CC1(C(=O)N[C@@H]2CO[C@H](C(=O)N3CCCC3)C2)CC(c2cc(F)cc(F)c2)=NO1 (relative stereo) [Example I-06, 3-(3,5-difluorophenyl)-N-[cis-5-(pyrrolidin-1-carbonyl)tetrahydrofuran-3-yl]-5-vinyl-4H-isoxazole-5-carboxamide]",,,,,,,,,,,,,,90%,80%,90%,80%,80%,80%,80%,pest or weed control at 320 g/ha (Amaranthus retroflexus [1]): 80%
C[C@]1(C(=O)N[C@@H]2CO[C@H](C(=O)NCc3ncc(C(F)(F)F)cc3Cl)C2)CC(c2cc(F)cc(F)c2)=NO1 [Example I-27],,80%,90%,100%,90%,90%,100%,90%,80%,,100%,80%,80%,,,,,,,,Pre-emergence herbicidal activity in % against AVEVA (AVEFA) (Avena fatua [16]): 80%; Pre-emergence herbicidal activity in % against STEME (Stellaria media [14]): 90%; Pre-emergence herbicidal activity in % against ALOMY (Alopecurus myosuroides [12]): 90%
